Reference: the supplement of paper PMC10307832

What was measured:
Assay in all cases: relative viability (nuclei count vs DMSO), 5 days (fraction); higher = more cells survive
[1] = compound: Cc1cnc(Nc2ccc(OCCN3CCCC3)cc2)nc1Nc1cccc(S(=O)(=O)NC(C)(C)C)c1 [Fedratinib] + Nc1ncn([C@H]2C[C@H](O)[C@@H](CO)O2)c(=O)n1 [Decitabine] (partner 2 µM)
Outline: (§1)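 After 5 days of treatment, lung cancer cells in 1536-well plates were fixed and stained in a single step (final 0.05% Triton X-100, 1% formaldehyde, 1 ug/ml Hoechst) and their nuclei counted on 4× images. Treatment had been applied by pin tool the day after seeding as one drug alone or as a fixed anchor-drug dose with five library-drug doses (not always all listed) in √10 steps. Relative viability is the nuclei count of treated wells divided by that of vehicle wells, and values are medians of duplicate plates.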

[2] = compound: COC1=CC=C(C=C1)COC2=C(C=C(C=C2)CC3=CN=C(N=C3N)N)OC [GW-2580] + O=C(c1cc(Cc2n[nH]c(=O)c3ccccc23)ccc1F)N1CCN(C(=O)C2CC2)CC1 [Olaparib] (partner 8 µM)
Outline: as §1

[3] = compound: COC1=CC=C(C=C1)COC2=C(C=C(C=C2)CC3=CN=C(N=C3N)N)OC [GW-2580] + CS(=O)(=O)CCNCc1ccc(-c2ccc3ncnc(Nc4ccc(OCc5cccc(F)c5)c(Cl)c4)c3c2)o1 [Lapatinib] (partner 2 µM)
Outline: as §1

[4] = compound: Cc1cnc(Nc2ccc(OCCN3CCCC3)cc2)nc1Nc1cccc(S(=O)(=O)NC(C)(C)C)c1 [Fedratinib] + COc1cccc2cc(-c3nc([C@H]4CC[C@H](C(=O)O)CC4)n4ncnc(N)c34)[nH]c12 [OSI-027] (partner 0.5 µM)
Outline: as §1

[5] = compound: Cc1cnc(Nc2ccc(OCCN3CCCC3)cc2)nc1Nc1cccc(S(=O)(=O)NC(C)(C)C)c1 [Fedratinib] + Cc1cc(Nc2cc(N3CCN(C)CC3)nc(Sc3ccc(NC(=O)C4CC4)cc3)n2)n[nH]1 [Tozasertib] (partner 0.1 µM)
Outline: as §1

[6] = compound: Cc1cnc(Nc2ccc(OCCN3CCCC3)cc2)nc1Nc1cccc(S(=O)(=O)NC(C)(C)C)c1 [Fedratinib] + Nc1nc2[nH]cc(CCc3ccc(C(=O)N[C@@H](CCC(=O)O)C(=O)O)cc3)c2c(=O)[nH]1 [Pemetrexed] (partner 0.2 µM)
Outline: as §1

Row | Cell Line | relative viability ([1]; first compound 0.1 µM) | relative viability ([1]; first compound 0.3162 µM) | relative viability ([1]; first compound 1 µM) | relative viability ([2]; first compound 0.08 µM) | relative viability ([2]; first compound 0.8 µM) | relative viability ([2]; first compound 2.53 µM) | relative viability ([2]; first compound 8 µM) | relative viability ([3]; first compound 0.08 µM) | relative viability ([3]; first compound 2.53 µM) | relative viability ([3]; first compound 8 µM) | relative viability ([4]; first compound 0.1 µM) | relative viability ([4]; first compound 0.3162 µM) | relative viability ([4]; first compound 1 µM) | relative viability ([5]; first compound 0.1 µM) | relative viability ([5]; first compound 0.3162 µM) | relative viability ([5]; first compound 1 µM) | relative viability ([6]; first compound 0.1 µM) | relative viability ([6]; first compound 0.3162 µM) | relative viability ([6]; first compound 1 µM) | relative viability ([3]; first compound 0.8 µM)
1 | LCLC-97TM1 | 0.273 | 0.255 | 0.214 | 0.379 | 0.579 | 0.313 | 0.428 | 1.02 | 0.973 | 0.898 | 0.715 | 0.504 | 0.452 | 0.175 | 0.213 | 0.19 | 0.204 | 0.151 | 0.169 | –
2 | LK-2 | 0.275 | 0.269 | 0.352 | 0.625 | 0.732 | 0.612 | 0.775 | 0.972 | 0.513 | 0.735 | 0.157 | 0.184 | 0.16 | 0.186 | 0.193 | 0.161 | 0.171 | 0.207 | 0.233 | 0.952
3 | LOU-NH91 | 0.756 | 0.798 | 0.785 | 0.916 | 0.946 | 0.897 | 0.98 | 0.748 | 0.649 | 0.789 | 0.669 | 0.72 | 0.664 | 0.388 | 0.73 | 0.64 | 0.43 | 0.351 | 0.399 | 0.811
4 | LU99A | 0.936 | 0.968 | 0.892 | 0.259 | 0.264 | 0.261 | 0.269 | 1.07 | 0.698 | 1.01 | 0.254 | 0.328 | 0.272 | 0.209 | 0.291 | 0.276 | 0.181 | 0.174 | 0.197 | 1.14
5 | LXF-289 | 0.36 | 0.338 | 0.378 | 1.24 | 1.14 | 1.06 | 1.19 | 0.941 | 0.815 | 0.829 | 0.796 | 0.792 | 0.791 | 0.149 | 0.185 | 0.151 | 0.89 | 0.872 | 0.884 | 0.946
6 | NCI-H23 | 0.322 | 0.338 | 0.324 | 0.329 | 0.329 | 0.321 | 0.273 | 1.03 | 0.936 | 1.25 | 0.579 | 0.654 | 0.525 | 0.528 | 0.364 | 0.303 | 0.681 | 0.59 | 0.497 | 1.09
7 | NCI-H322M | 0.657 | 0.749 | 0.64 | 0.76 | 0.956 | 0.753 | 0.626 | 0.547 | 0.592 | 0.573 | 0.548 | 0.566 | 0.462 | 0.52 | 0.447 | 0.333 | 0.61 | 0.651 | 0.538 | 0.627
8 | NCI-H358 | 0.156 | 0.21 | 0.101 | 0.652 | 0.658 | 0.635 | 0.621 | 0.499 | 0.409 | 0.409 | 0.594 | 0.892 | 0.47 | 0.0945 | 0.0925 | 0.0987 | 0.175 | 0.155 | 0.156 | 0.484
9 | NCI-H460 | 0.556 | 0.495 | 0.232 | 0.379 | 0.508 | 0.516 | 0.353 | 1.86 | 0.689 | 1.01 | 0.642 | 0.645 | 0.507 | 0.078 | 0.379 | 0.334 | 0.0603 | 0.0665 | 0.0598 | 1.31
10 | NCI-H520 | 0.557 | 0.454 | 0.532 | 0.3 | 0.416 | 0.337 | 0.342 | 0.973 | 0.849 | 0.931 | 0.255 | 0.253 | 0.216 | 0.438 | 0.467 | 0.405 | 0.804 | 0.59 | 0.436 | 0.926
11 | NCI-H596 | 0.937 | 1.01 | 0.975 | 0.8 | 0.746 | 0.715 | 0.651 | 1.25 | 0.996 | 1.2 | 0.577 | 0.727 | 0.746 | 0.899 | 0.878 | 0.916 | 0.511 | 0.511 | 0.426 | 1.2
12 | NCI-H647 | 0.581 | 0.327 | 0.372 | 0.776 | 0.667 | 0.444 | 0.71 | 1.22 | 0.926 | 1.15 | 0.625 | 0.697 | 0.444 | 0.249 | 0.336 | 0.214 | 0.172 | 0.146 | 0.134 | 1.29
13 | NCI-H650 | 0.349 | 0.372 | 0.34 | 0.373 | 0.379 | 0.364 | 0.472 | 0.93 | 0.801 | 0.864 | 0.456 | 0.469 | 0.454 | 0.312 | 0.764 | 0.69 | 0.866 | 0.887 | 0.835 | 1.09
14 | NCI-H661 | 0.566 | 0.54 | 0.423 | 0.807 | 0.813 | 0.722 | 0.665 | 0.448 | 0.378 | 0.459 | 0.729 | 0.735 | 0.55 | 0.327 | 0.326 | 0.371 | 0.939 | 0.928 | 0.883 | 0.647
15 | NCI-H838 | 0.444 | 0.454 | 0.431 | 0.906 | 0.938 | 0.838 | 0.94 | 0.994 | 0.789 | 0.987 | 0.31 | 0.471 | 0.259 | 0.248 | 0.271 | 0.21 | 0.236 | 0.224 | 0.225 | 1.11
